One molecule from US20160367622A1, “AGONISTS OF GUANYLATE CYCLASE USEFUL FOR THE TREATMENT OF OPIOID INDUCED DYSFUNCTIONS” (priority 2013, published 2016) can be followed below.

“Also recorded” adds a separate entry of the source. Positions of bridges follow the written chain, without caps; N, C: chain ends. Non-standard residues stand in square brackets, D forms with d. Residues, ends and D or L forms follow the SMILES beside them.

One assay deals with T84 cells. The experiment in a line: cyclic GMP and cyclic AMP production in T84 cells. The format is cell-based, human. The conditions noted are these: 0.01, 0.1, 1, or 10 μM SP-333. The protocol: FIG. 3A-B is a series of graphs showing that SP-333 stimulates cyclic GMP, but not cyclic AMP production in T84 cells. Cells were treated with either control, IBMX, SP-333 ([…]), forskolin (FSK) or FSK+IBMX.
The results are depicted in FIG. 3A-B. T84 cells were treated with either control, IBMX, forskolin (FSK), or 0.01, 0.1, 1, or 10 μM SP-333, and the production of cGMP or cAMP measured (pmoles/well). CPT-cGMP and CPT-cAMP both stimulate Isc across T84 cell monolayers.

Assay [1] relates to patients with symptoms of OIC treated for non-malignant chronic pain with opioid therapy. Put plainly: randomized 4-week placebo-controlled dose-ranging study in OIC: efficacy. The format is in vivo, human. The conditions noted are these: for Week 4 change from baseline in SBMs, LS Mean (SE) / Week 4 change from baseline in SBMs, Mean (SD): observed cases, mITT population. From the text:
A Randomized, 4-Week, Double-Blind, Placebo-Controlled, Dose-Ranging Study to Assess the Safety and Efficacy of Sp-333 for the Treatment of Opioid-Induced Constipation (OIC) in Patients with Non-Malignant Chronic Pain Receiving Opioid Therapy
To evaluate the clinical efficacy of SP-333 compared with placebo, in patients with symptoms of OIC who have been treated for non-malignant chronic pain with opioid therapy.
The primary efficacy endpoint was to determine the mean change from baseline in the number of […] (SBMs) during Week 4 of the Treatment Period. Safety was assessed by analysis of the frequency of treatment-emergent adverse events (TEAEs), adverse events leading to withdrawal, and serious adverse events (SAEs).

The test system of assay [2] is female Sprague-Dawley rats. Put plainly: morphine-induced delay in rat GI transit (charcoal meal). The format is in vivo. The conditions noted are these: 2.5 mg/kg morphine IP. The protocol: Animals: All study procedures were conducted under a study outline approved by the Institutional Animal Care and Use Committee of MB Research Labs (Spinnerstown, Pa.) or Lampire Biological Laboratories (Pipersville, Pa.). Seven to eight week old female Sprague-Dawley rats [Crl:CD(SD)], weighing between ˜180-210 grams, were obtained from Charles River Laboratories and allowed to acclimate for a week. Animals were maintained on a 12 hour light-dark cycle. For intestinal tissue collection and evaluation of GI transit, rats were fasted for at least 18 hours before the experiment, with free access to water.
The ability of opioids to delay GI transit in rats was tested by either administering 0 (vehicle) 0.25, 1 and 2.5 mg/kg of morphine or 0 (vehicle), 0.25, 2.5 and 5 mg/kg of methadone (1.5 ml/kg dose volume) by IP injection. Water served as vehicle control. Ten minutes later, a 2 mL charcoal meal consisting of 10% activated charcoal (Sigma-Aldrich, St. Louis, Mo.) and 10% gum Arabic (Sigma-Aldrich, St. Louis, Mo.) in water was administered via oral gavage. Rats were euthanized 10 min after the charcoal meal via IP injection of 150 mg/kg Beuthanasia-D solution (sodium pentobarbital, 390 mg/mL). The small intestine was removed and the total length from the pyloric sphincter to the ileocecal junction was recorded, as well as the distance traveled by the leading edge of the charcoal. Intestinal transit was determined by calculating the ratio (expressed as a percentage) of the distance between the pyloric sphincter and the leading edge of the charcoal to the distance between the pyloric sphincter and the ileocecal junction.
To evaluate the ability of SP-333 to reverse morphine induced delayed GI transit, animals were administered 2.5 mg/kg of morphine by IP injection followed immediately by oral gavage of 0 (vehicle), 0.5, 2.5, 5 and 50 mg/kg of SP-333 (1.5 ml/kg dose volume). Water served as vehicle control. Charcoal meal was administered ten minutes later and animals were euthanized ten minutes after the charcoal meal and intestinal transit was calculated as described above.

For the molecule `CC(C)C[C@@H]1NC(=O)[C@H](CCC(=O)O)NC(=O)[C@@H](NC(=O)[C@H](CCC(=O)O)NC(=O)[C@H](CC(=O)O)NC(=O)[C@H](N)CC(N)=O)CSSC[C@@H]2NC(=O)[C@H](C)NC(=O)[C@H](C(C)C)NC(=O)[C@H](CC(N)=O)NC(=O)[C@H](C(C)C)NC(=O)[C@H](CSSC[C@@H](C(=O)N[C@H](CC(C)C)C(=O)O)NC(=O)CNC(=O)[C@H]([C@@H](C)O)NC2=O)NC1=O` [SP-333, dAsn^1-Asp^2-Glu^3-Cys^4-Glu^5-Leu^6-Cys^7-Val^8-Asn^9-Val^10-Ala^11-Cys^12-Thr^13-Gly^14-Cys^15-dLeu^16] (H-[dN]DECELCVNVACTGC[dL]-OH; disulfide 4-12, 7-15), in the assay with T84 cells, the cAMP production result is recorded as “not cAMP synthesis; also recorded: does not result in an increase of cAMP production”. Besides, in the assay on T84 cells, the cGMP production result is listed as “stimulates cGMP synthesis; also recorded: concentration dependent increase in cGMP levels”. Moreover, the “increase in Isc” value in the assay with T84 cells monolayer (0.01-10 μM at mucosal surface of T84 cells) was “concentration-dependent increase in Isc approaching saturation at 10 μM”. In the assay on T84 cells monolayer (treatment from the basolateral chamber, T84 monolayer), the “stimulation of Isc” value is reported as “did not stimulate Isc”. In assay [1] (3 mg and 6 mg doses), the “primary endpoint (mean change from baseline in SBMs during Week 4)” value is “statistically significant improvement”. Besides, the “Week 4 change from baseline in SBMs, Difference from Placebo” value was 0.613 SBMs/week in assay [1] (SP-333 1 mg), 1.405 SBMs/week in assay [1] (SP-333 3 mg) and 1.528 SBMs/week in assay [1] (SP-333 6 mg). In addition, the “Week 4 change from baseline in SBMs, LS Mean (SE)” value in assay [1] (SP-333 1 mg) is 2.436 (0.3800) SBMs/week; in assay [1] (SP-333 3 mg) it was 3.227 (0.3858) SBMs/week; in assay [1] (SP-333 6 mg) it was 3.351 (0.3919) SBMs/week. Further, the “Week 4 change from baseline in SBMs, Mean (SD)” value in assay [1] (SP-333 1 mg) was 2.429 (2.7363) SBMs/week; in assay [1] (SP-333 3 mg) it was 3.210 (3.8524) SBMs/week; in assay [1] (SP-333 6 mg), 3.379 (3.1424) SBMs/week. The “GI transit in morphine-treated rats” value is listed as 27% in assay [2] (then SP-333 0.5 mg/kg oral gavage), 37% in assay [2] (then SP-333 2.5 mg/kg oral gavage), 46% in assay [2] (then SP-333 5 mg/kg oral gavage) and 48% in assay [2] (then SP-333 50 mg/kg oral gavage).
